In ChEMBL document CHEMBL4371068, “Potent inhibitors of malarial P. Falciparum protein kinase G: Improving the cell activity of a series of imidazopyridines” (Bioorg Med Chem Lett, 2019) one finds Papp data, which are given here for eight molecules.

The series can be described thus: Apparent permeability of the compound in phosphate buffer saline at 50 to 200 uM after 5 hrs by PAMPA. In kind it is ADME.
Consider `CN(C)Cc1ccc2c(c1)nc(-c1ccc(F)cc1)n2-c1ccnc(N)n1`, for which the Papp at 5 h, up to 200 µM is 3.2 ×10⁻⁶ cm/s.
As to `CN(C)Cc1ccc2c(-c3ccnc(N)n3)c(-c3ccc(F)cc3)nn2c1`, the Papp at 5 h, up to 200 µM stood at 18.5 ×10⁻⁶ cm/s.
Under `CN(C)CCNc1ccc2nc(-c3ccc(F)cc3)c(-c3ccnc(N)n3)n2n1` stands 1 ×10⁻⁶ cm/s.
To `CN1CCC(n2cc(Nc3nccc(-c4c(-c5ccc(F)cc5)nc5ccccn45)n3)cn2)CC1` belongs 12.4 ×10⁻⁶ cm/s.
To `Fc1ccc(-c2nc3ccccn3c2-c2ccnc(NC3CCOCC3)n2)cc1` belongs 14.5 ×10⁻⁶ cm/s; to `CN(C)Cc1ccn2c(-c3ccnc(N)n3)c(-c3ccc(F)cc3)nc2n1`, 11.8 ×10⁻⁶ cm/s; to `CN(C)Cc1cc2nc(-c3ccc(F)cc3)c(-c3ccnc(N)n3)n2cn1`, 5.8 ×10⁻⁶ cm/s.
Regarding `CN(C)CCCNc1nccc(-c2c(-c3ccc(F)cc3)nc3ccccn23)n1`, the Papp at 5 h, up to 200 µM worked out at 8.2 ×10⁻⁶ cm/s.
